Reference: the NIST ThermoML archive (doi:10.1021/je900414p)

Assay: xn = mol fraction of the nth substance listed
Conditions: Liquid

CCOS(=O)(=O)[O-].CCn1cc[n+](C)c1 [1-ethyl-3-methylimidazolium ethyl sulfate] + CCO
mass density [kg/m3]
Conditions	100 kPa	2500 kPa	5000 kPa	10000 kPa	15000 kPa	20000 kPa	25000 kPa	30000 kPa	35000 kPa
283.15 K, x1 = 0.05056	868.1	870	871.83	875.33	878.74	882.02	885.17	888.22	891.19
283.15 K, x1 = 0.103	925.77	927.45	929.13	932.41	935.57	938.63	941.59	944.47	947.26
283.15 K, x1 = 0.1247	946.96	948.54	950.16	953.34	956.4	959.38	962.25	965.06	967.8
283.15 K, x1 = 0.2126	1015.49	1016.98	1018.48	1021.37	1024.17	1026.89	1029.52	1032.11	1034.62
283.15 K, x1 = 0.2919	1063.41	1064.67	1066.03	1068.69	1071.27	1073.82	1076.29	1078.72	1081.08
283.15 K, x1 = 0.3185	1076.89	1078.19	1079.51	1082.11	1084.66	1087.15	1089.57	1091.95	1094.27
283.15 K, x1 = 0.4198	1120.15	1121.36	1122.61	1125.05	1127.44	1129.77	1132.05	1134.29	1136.48
283.15 K, x1 = 0.4847	1142.52	1143.68	1144.88	1147.23	1149.51	1151.78	1153.99	1156.16	1158.29
283.15 K, x1 = 0.5713	1167.9	1169.02	1170.16	1172.41	1174.61	1176.78	1178.91	1181.01	1183.08
283.15 K, x1 = 0.6827	1194.68	1195.76	1196.85	1199	1201.12	1203.21	1205.24	1207.27	1209.25
283.15 K, x1 = 0.7919	1216.13	1217.15	1218.19	1220.26	1222.32	1224.34	1226.31	1228.28	1230.19
283.15 K, x1 = 0.9317	1237.97	1238.92	1239.94	1241.93	1243.92	1245.88	1247.81	1249.69	1251.56
293.15 K, x1 = 0.05056	860.03	861.91	863.83	867.52	871.06	874.47	877.74	880.91	883.98
293.15 K, x1 = 0.103	917.84	919.6	921.37	924.78	928.08	931.25	934.32	937.28	940.18
293.15 K, x1 = 0.1247	939.1	940.76	942.46	945.77	948.96	952.04	955.03	957.93	960.74
293.15 K, x1 = 0.2126	1007.62	1009.27	1010.81	1013.8	1016.71	1019.53	1022.26	1024.93	1027.53
293.15 K, x1 = 0.2919	1055.3	1056.61	1058.04	1060.8	1063.5	1066.12	1068.67	1071.18	1073.62
293.15 K, x1 = 0.3185	1069.32	1070.62	1071.98	1074.68	1077.32	1079.89	1082.37	1084.82	1087.22
293.15 K, x1 = 0.4198	1112.7	1113.96	1115.24	1117.75	1120.22	1122.63	1124.97	1127.27	1129.54
293.15 K, x1 = 0.4847	1135.13	1136.31	1137.55	1139.97	1142.34	1144.68	1146.94	1149.19	1151.37
293.15 K, x1 = 0.5713	1160.59	1161.75	1162.92	1165.25	1167.52	1169.75	1171.93	1174.07	1176.19
293.15 K, x1 = 0.6827	1187.41	1188.51	1189.64	1191.86	1194.04	1196.18	1198.27	1200.33	1202.37
293.15 K, x1 = 0.7919	1208.95	1210	1211.08	1213.21	1215.31	1217.38	1219.4	1221.4	1223.38
293.15 K, x1 = 0.9317	1230.93	1231.9	1232.97	1235.05	1237.08	1239.09	1241.05	1242.97	1244.9
298.15 K, x1 = 0.05056	855.98	857.88	859.83	863.62	867.22	870.7	874.05	877.28	880.4
298.15 K, x1 = 0.103	913.93	915.61	917.4	920.89	924.24	927.48	930.6	933.63	936.57
298.15 K, x1 = 0.1247	935.16	936.81	938.54	941.91	945.16	948.3	951.34	954.29	957.15
298.15 K, x1 = 0.2126	1003.9	1005.45	1007.01	1010.07	1013.02	1015.88	1018.67	1021.38	1024.03
298.15 K, x1 = 0.2919	1052	1052.97	1054.41	1057.22	1059.95	1062.62	1065.22	1067.75	1070.23
298.15 K, x1 = 0.3185	1065.62	1066.9	1068.3	1071.05	1073.73	1076.33	1078.88	1081.37	1083.79
298.15 K, x1 = 0.4198	1109.11	1110.35	1111.65	1114.21	1116.72	1119.15	1121.54	1123.89	1126.17
298.15 K, x1 = 0.4847	1131.56	1132.76	1133.99	1136.46	1138.86	1141.21	1143.53	1145.8	1148.02
298.15 K, x1 = 0.5713	1157.07	1158.2	1159.39	1161.74	1164.05	1166.31	1168.52	1170.7	1172.85
298.15 K, x1 = 0.6827	1183.93	1185.01	1186.16	1188.41	1190.6	1192.77	1194.89	1197	1199.05
298.15 K, x1 = 0.7919	1205.61	1206.51	1207.59	1209.76	1211.88	1213.98	1216.03	1218.05	1220.04
298.15 K, x1 = 0.9317	1227.5	1228.53	1229.57	1231.66	1233.72	1235.74	1237.73	1239.69	1241.63
303.15 K, x1 = 0.05056	851.9	853.85	855.87	859.72	863.43	866.98	870.39	873.69	876.89
303.15 K, x1 = 0.103	910.06	911.7	913.54	917.1	920.52	923.82	927	930.09	933.1
303.15 K, x1 = 0.1247	931.25	932.93	934.69	938.12	941.44	944.64	947.74	950.74	953.67
303.15 K, x1 = 0.2126	1000.1	1001.68	1003.26	1006.36	1009.37	1012.29	1015.12	1017.88	1020.58
303.15 K, x1 = 0.2919	1048.63	1049.46	1050.92	1053.74	1056.51	1059.18	1061.79	1064.33	1066.82
303.15 K, x1 = 0.3185	1061.99	1063.29	1064.7	1067.49	1070.22	1072.86	1075.44	1077.96	1080.42
303.15 K, x1 = 0.4198	1105.54	1106.82	1108.14	1110.73	1113.28	1115.76	1118.18	1120.55	1122.89
303.15 K, x1 = 0.4847	1128.01	1129.22	1130.5	1132.99	1135.43	1137.83	1140.16	1142.46	1144.71
303.15 K, x1 = 0.5713	1153.59	1154.71	1155.92	1158.31	1160.66	1162.94	1165.19	1167.4	1169.59
303.15 K, x1 = 0.6827	1180.46	1181.59	1182.73	1185	1187.24	1189.45	1191.6	1193.74	1195.84
303.15 K, x1 = 0.7919	1202.24	1203.1	1204.19	1206.38	1208.54	1210.64	1212.73	1214.77	1216.82
303.15 K, x1 = 0.9317	1224.05	1225.06	1226.12	1228.23	1230.32	1232.36	1234.37	1236.36	1238.34
